Experimental data: patent US11964938B2, “3-phenyl-4-hexynoic acid derivatives as GPR40 agonists” (CELON PHARMA S.A., priority 2018, dated 2024)
Structures can show the parent of a compound that is named as a salt.

Experiments:
BSEP = target: T1, BSEP (Homo sapiens, UniProt O95342); assay: Vesicular transport inhibition assay, BSEP; format: biochemical; conditions: membrane vesicles from HEK293 cells
T1 construct: host or cells: HEK293 (membrane vesicles)
Procedure: (§1) Experiment B4: Bile Acid Transporters Inhibition in the Liver. […] The compound was tested on a panel of 10 transporters: BSEP, MRP2, MRP3, MRP4 in a vesicular transport inhibition assay and NTCP, OAT1, OAT2v1, OATP1A2, OATP1B1, OATP1B3 in an uptake transporter inhibition assays. Vesicular transport inhibition assay was performed on membrane vesicles isolated from mammal HEK293 cells overexpressing human ABC transporters. Tested compound were incubated with vesicles and substrates for respective tested transporters. Incubation was performed in the presence of 4 mM ATP or AMP in order to differentiate between uptake by a transporter and passive diffusion into vesicles. In the case of MRP2 and MRP3, reactions were performed in the presence of 2 mM glutathione. Tested compounds were added to the reaction mixture dissolved in 0.75 μl of a solvent (1% of final incubation volume). Reaction mixtures were preincubated for 15 minutes at 37±1° C. Reactions were started by the addition of 25 μl of 12 mM MgATP (or 12 mM AMP) in test buffer, as a background control, separately preincubated.

OATP1A2 = target: T2, OATP1A2 (Homo sapiens, UniProt P46721); assay: Uptake transporter inhibition assay, OATP1A2; format: cell-based; conditions: HEK293 cells overexpressing transporter
T2 construct: host or cells: HEK293
T2 sequence (P46721 1-670): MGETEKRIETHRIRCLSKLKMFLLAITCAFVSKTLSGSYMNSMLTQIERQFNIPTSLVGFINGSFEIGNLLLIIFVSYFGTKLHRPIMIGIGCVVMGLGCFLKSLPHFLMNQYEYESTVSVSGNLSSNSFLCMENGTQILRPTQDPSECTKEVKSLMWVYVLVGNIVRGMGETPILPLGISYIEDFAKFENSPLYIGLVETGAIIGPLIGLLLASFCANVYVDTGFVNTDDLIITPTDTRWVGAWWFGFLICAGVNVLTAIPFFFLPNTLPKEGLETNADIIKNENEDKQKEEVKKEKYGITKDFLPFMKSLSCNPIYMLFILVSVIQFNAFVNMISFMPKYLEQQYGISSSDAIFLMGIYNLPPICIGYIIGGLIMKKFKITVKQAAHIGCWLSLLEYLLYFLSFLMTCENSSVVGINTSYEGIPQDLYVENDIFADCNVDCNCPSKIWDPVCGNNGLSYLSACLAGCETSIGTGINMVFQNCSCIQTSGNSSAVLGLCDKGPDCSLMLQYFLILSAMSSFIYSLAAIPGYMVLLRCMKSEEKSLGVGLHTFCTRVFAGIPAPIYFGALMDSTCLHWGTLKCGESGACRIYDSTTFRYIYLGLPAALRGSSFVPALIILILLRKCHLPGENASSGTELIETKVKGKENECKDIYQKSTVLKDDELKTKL
Procedure: (§2) Experiment B4: Bile Acid Transporters Inhibition in the Liver.
(§3) The compound was tested on a panel of 10 transporters: BSEP, MRP2, MRP3, MRP4 in a vesicular transport inhibition assay and NTCP, OAT1, OAT2v1, OATP1A2, OATP1B1, OATP1B3 in an uptake transporter inhibition assays.
(§4) Transporter uptake inhibition test was performed on mammal HEK293 cells overexpressing of a respective transporter. Cells were cultured at 37±1° C. and seeded on 96-well tissue culture plate at 1×10^5/well. Substrate was removed prior to experiment and cells were washed twice with 100 μl of respective buffer (HK pH 7.4 for OATP1B1 and HBSS pH 7.4 for NTCP, OAT1, OAT2v1, OATP1A2, and OATP1B3). Uptake studies were performed at 37±1° C. in 50 μl of respective buffer containing radioactively tagged substrate and tested compound or solvent.
(§5) After experiment cells were washed twice with 100 μl of ice-cold respective buffer and lysed with 50 μl of 0.1M NaOH. Transport of radioactively tagged substrate was determined by scintillation counter measurement.

OATP1B1 = target: T3, OATP1B1 (Homo sapiens, UniProt Q9Y6L6); assay: Uptake transporter inhibition assay, OATP1B1; format: cell-based; conditions: HEK293 cells overexpressing transporter
T3 construct: host or cells: HEK293
T3 sequence (Q9Y6L6 1-691): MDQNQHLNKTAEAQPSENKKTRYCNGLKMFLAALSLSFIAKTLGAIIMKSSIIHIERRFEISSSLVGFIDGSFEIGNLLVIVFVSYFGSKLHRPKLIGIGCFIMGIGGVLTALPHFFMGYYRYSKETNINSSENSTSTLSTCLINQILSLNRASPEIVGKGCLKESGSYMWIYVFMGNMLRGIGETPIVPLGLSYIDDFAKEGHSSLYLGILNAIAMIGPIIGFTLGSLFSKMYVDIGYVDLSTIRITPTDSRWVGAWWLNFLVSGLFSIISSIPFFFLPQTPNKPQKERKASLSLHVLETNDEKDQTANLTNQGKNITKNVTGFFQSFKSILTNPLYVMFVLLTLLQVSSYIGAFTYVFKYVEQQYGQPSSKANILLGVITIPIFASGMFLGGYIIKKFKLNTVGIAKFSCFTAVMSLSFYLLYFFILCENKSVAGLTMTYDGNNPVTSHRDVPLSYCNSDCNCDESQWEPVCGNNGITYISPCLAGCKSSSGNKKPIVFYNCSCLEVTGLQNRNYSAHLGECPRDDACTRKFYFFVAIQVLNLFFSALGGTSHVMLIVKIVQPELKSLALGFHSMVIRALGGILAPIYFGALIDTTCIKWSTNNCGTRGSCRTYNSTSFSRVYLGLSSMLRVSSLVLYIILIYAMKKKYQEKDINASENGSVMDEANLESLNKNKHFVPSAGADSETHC
Procedure: as §2, §3, §4, §5

MRP3 = target: T4, MRP3 (Homo sapiens, UniProt O15438); assay: Vesicular transport inhibition assay, MRP3; format: biochemical; conditions: membrane vesicles from HEK293 cells
T4 construct: host or cells: HEK293 (membrane vesicles)
Procedure: as §1

NTCP = target: T5, NTCP (Homo sapiens, UniProt Q14973); assay: Uptake transporter inhibition assay, NTCP; format: cell-based; conditions: HEK293 cells overexpressing transporter
T5 construct: host or cells: HEK293
T5 sequence (Q14973 1-349): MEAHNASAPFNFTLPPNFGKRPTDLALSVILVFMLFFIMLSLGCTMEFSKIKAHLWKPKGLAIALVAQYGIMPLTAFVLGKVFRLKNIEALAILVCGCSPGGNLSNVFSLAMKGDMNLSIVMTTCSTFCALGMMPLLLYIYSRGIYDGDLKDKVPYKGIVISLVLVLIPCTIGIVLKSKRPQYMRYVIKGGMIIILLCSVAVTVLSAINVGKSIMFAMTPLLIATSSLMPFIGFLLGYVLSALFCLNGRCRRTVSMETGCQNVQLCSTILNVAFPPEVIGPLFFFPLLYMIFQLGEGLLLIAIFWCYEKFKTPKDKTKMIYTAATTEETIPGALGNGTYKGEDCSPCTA
Procedure: as §2, §3, §4, §5

T1 sequence (O95342 whole entry): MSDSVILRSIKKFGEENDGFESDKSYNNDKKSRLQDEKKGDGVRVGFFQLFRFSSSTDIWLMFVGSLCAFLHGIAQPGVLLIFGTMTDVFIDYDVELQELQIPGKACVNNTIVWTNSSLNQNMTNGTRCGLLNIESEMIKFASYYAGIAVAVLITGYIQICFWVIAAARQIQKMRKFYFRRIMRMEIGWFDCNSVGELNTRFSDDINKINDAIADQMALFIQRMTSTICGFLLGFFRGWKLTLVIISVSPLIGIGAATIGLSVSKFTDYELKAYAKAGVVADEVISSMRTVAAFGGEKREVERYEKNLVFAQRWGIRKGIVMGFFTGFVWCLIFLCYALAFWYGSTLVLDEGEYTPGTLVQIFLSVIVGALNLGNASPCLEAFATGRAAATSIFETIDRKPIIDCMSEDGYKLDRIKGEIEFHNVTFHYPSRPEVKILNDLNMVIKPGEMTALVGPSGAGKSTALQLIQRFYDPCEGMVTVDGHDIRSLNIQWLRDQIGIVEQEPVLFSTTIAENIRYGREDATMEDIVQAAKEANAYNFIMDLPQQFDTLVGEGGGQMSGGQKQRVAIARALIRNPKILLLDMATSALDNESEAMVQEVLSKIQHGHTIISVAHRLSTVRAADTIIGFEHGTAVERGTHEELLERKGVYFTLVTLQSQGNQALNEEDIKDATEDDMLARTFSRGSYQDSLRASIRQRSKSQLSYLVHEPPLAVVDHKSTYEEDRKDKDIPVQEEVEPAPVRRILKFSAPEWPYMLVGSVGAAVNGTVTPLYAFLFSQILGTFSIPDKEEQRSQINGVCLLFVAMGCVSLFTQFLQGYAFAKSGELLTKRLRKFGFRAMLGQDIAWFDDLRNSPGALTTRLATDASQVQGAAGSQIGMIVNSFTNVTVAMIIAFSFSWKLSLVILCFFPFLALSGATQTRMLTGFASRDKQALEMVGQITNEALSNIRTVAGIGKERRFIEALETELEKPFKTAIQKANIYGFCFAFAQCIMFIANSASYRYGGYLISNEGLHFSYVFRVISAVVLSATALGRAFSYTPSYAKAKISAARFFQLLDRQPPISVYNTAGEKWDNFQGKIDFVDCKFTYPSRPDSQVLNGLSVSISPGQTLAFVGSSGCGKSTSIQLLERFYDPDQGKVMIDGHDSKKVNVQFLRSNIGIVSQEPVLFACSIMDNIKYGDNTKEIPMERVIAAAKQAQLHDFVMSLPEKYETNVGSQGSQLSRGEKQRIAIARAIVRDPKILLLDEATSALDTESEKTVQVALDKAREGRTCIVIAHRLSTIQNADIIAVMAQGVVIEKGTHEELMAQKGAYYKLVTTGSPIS
T4 sequence (O15438 whole entry): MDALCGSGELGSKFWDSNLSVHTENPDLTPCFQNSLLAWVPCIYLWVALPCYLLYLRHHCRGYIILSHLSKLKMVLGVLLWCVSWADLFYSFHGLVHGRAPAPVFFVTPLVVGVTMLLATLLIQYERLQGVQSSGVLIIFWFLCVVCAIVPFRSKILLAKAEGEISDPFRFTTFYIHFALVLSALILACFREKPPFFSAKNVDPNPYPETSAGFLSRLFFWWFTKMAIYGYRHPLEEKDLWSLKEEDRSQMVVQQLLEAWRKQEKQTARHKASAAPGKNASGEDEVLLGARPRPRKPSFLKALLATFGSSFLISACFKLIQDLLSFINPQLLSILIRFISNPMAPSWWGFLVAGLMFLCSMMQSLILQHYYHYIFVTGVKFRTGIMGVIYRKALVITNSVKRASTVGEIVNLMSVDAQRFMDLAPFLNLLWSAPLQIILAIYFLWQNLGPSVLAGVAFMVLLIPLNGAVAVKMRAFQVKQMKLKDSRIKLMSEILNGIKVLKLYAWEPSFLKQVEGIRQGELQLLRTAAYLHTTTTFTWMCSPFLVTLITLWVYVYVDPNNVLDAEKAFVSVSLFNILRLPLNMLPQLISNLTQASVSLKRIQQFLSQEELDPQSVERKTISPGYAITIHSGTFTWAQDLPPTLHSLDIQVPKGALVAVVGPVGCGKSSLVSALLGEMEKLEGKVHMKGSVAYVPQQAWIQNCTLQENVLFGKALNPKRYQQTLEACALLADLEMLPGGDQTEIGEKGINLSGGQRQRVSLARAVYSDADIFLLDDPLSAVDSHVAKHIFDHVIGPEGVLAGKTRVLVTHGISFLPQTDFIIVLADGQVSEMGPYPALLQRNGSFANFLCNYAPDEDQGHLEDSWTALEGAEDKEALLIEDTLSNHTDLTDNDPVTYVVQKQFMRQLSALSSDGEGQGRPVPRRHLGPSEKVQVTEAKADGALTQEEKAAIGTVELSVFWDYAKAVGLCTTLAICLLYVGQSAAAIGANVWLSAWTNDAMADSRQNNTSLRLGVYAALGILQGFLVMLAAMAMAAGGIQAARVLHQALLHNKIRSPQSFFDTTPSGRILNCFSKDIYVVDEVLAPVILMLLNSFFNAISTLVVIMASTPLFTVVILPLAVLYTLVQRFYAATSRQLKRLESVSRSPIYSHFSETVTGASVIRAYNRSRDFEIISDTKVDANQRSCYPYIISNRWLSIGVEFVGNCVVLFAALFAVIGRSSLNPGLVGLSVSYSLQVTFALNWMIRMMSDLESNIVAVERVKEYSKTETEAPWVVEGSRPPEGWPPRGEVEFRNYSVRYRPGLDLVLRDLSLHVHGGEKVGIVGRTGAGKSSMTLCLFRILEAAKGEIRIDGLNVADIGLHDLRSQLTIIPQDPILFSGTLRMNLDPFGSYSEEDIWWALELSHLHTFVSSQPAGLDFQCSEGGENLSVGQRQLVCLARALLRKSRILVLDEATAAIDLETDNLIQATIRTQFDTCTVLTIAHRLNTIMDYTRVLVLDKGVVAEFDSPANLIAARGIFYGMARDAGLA

Compound	IC50 (BSEP)	IC50 (OATP1A2)	IC50 (OATP1B1)	IC50 (MRP3; 2 mM glutathione)	IC50 (NTCP)	IC50 (MRP3; symbol per footnote)
Cc1cc(OCCCS(C)(=O)=O)cc(C)c1-c1cccc(COc2ccc3c(c2)OC[C@H]3CC(=O)O)c1 [Example R1, 2[(3S)-6-({3-[4-(3-methanesulfonylpropoxy)-2,6-dimethylphenyl]-phenyl}methoxy)-2,3-dihydro-1-benzofuran-3-yl]acetic acid, reference compound]	30 µM	10.6 µM	0.49 µM	31.8 µM	53.1 µM	
CC#C[C@@H](CC(=O)O)c1ccc(OCC(C)=C(C)C)cc1 [Example S1, (3S)-3-{4-[(2,3-dimethylbut-2-en-1-yl)oxy]phenyl}hex-4-ynoic acid calcium salt]	> 100 µM	118 µM	17.9 µM		46.8 µM	> 100 µM
